Here are results for four compounds from PMC10397409, “The action of physiological and synthetic steroids on the calcium channel CatSper in human sperm” (Frontiers in Cell and Developmental Biology, 2023).

Test [1] relates to human sperm. Nature of the test: Acrosome reaction in live human sperm (PSA-FITC flow cytometry). The format is cell-based. The settings on record: 45 min; for cells with induced acrosome reaction: steroid 10 µM, capacitated sperm, increase not significant. The method, then:
The evaluation of acrosome reaction in live human sperm cells was performed using a modified version of a previously described method ([Zoppino et al., 2012]). Briefly, swim-up recovered motile spermatozoa were allowed to capacitate for 4 h at 37°C in capacitating media (HTF+) containing: 93.8 mM NaCl, 4.7 mM KCl, 0.2 mM MgSO4, 0.369 mM KH2PO4, 2.04 mM CaCl2, 20.98 mM HEPES, 2.78 mM glucose, 21.4 mM Na-lactate, 25 mM NaHCO3, 6.6 µM Na-pyruvate, and the pH was adjusted to 7.35. Capacitated sperm were then incubated for 30 min with 5 μg/mL Pisum sativum agglutinin conjugated with fluorescein isothiocyanate (PSA-FITC) and 10 μg/mL Hoechst-33342. Samples were centrifuged at 700 x g for 10 min at room temperature to remove excess dye and resuspended in HTF+. Sperm were then incubated for 45 min in the absence (DMSO) or presence of the steroids at 10 μM, or positive control P4 at 10 µM. The ionophore A23187 was also used as a positive control and incubated with sperm at 2 µM for 30 min only. PI (0.5 μg/mL) was then added to all samples which were analyzed using BDFACSAria. FITC-PSA fluorescence was detected by excitation at 475 nm and emission at 560/35 nm, PI was detected by excitation at 530 nm and emission at 675/75 nm and Hoechst was detected by excitation at 346 nm and emission at 460 nm. Hoechst-positive and PI-negative cells were classified as live cells. Doublet exclusion was performed by two-dimensional dot plot analysis of forward-scatter width (FSC-W) versus forward-scatter height (FSC-H), and side-scatter width (SSC-W) versus side-scatter height (SSC-H) on the pre-selected singlets. Data were collected from 40,000 […] per sample to define the sperm population. Based on the selected population, PI-negative and PSA-FITC-positive cells were selected as live acrosome reacted cells, whereas PI-negative and PSA-FITC-negative cells were selected as live acrosome intact cells.
On the technique in general: A flow cytometer gives signals particle by particle.

Test [2] deals with T1, CatSper (Homo sapiens, UniProt Q7RTX7+Q86XQ3+Q8NEC5+Q96P56).
T1 construct: Motile spermatozoa were selected by a ‘swim-up’ procedure; endogenous in cells; host or cells: motile human spermatozoa (swim-up) from healthy donors
Nature of the test: Steroid-induced increase in [Ca2+]i in human sperm (Fluo-4 HTS assay, screen 1 activators). It is filed as cell-based. The conditions noted are these: for Emax: read-out: Max amplitude (%) (± SD).

Setting [3] is: EC50 (±SD), increase in [Ca2+]i, dose-response 90 µM to 0.3 nM.
Where [4] appears, read: Mean EC50 µM (±SD), pooled from 3 independent experiments.
Where [5] appears, read: maximal amplitude of steroid-induced [Ca2+]i increase, relative to P4, 3 independent experiments.

Where two headings read alike, the source gives them in different places.

In the case of `C[C@]12CC[C@H](O)C[C@@H]1CC[C@@H]1[C@@H]2CC[C@]2(C)C(=O)CC[C@@H]12` [Epiandrosterone], the “cells with induced acrosome reaction” value in test [1] is “more than 10%”. Further, the “EC02 compared with reported maximum concentration in blood serum” value in test [2] is “EC02 below the reported maximum concentration found in blood serum”. Moreover, the EC50 – broadly, the concentration giving half of the maximal effect – in test [2] (setting [3]) is 0.209 µM; in test [2] (setting [4]), 0.207 µM. Besides, the Emax in test [2] amounted to 78%.

Turning to `CC(=O)[C@H]1CC[C@H]2[C@@H]3CC=C4C[C@@H](O)CC[C@]4(C)[C@H]3CC[C@]12C` [Pregnenolone], the “cells with induced acrosome reaction” value in test [1] is on record as “more than 10%”. In addition, the “EC02 compared with reported maximum concentration in blood serum” value in test [2] is reported as “EC02 below the reported maximum concentration found in blood serum”. The “effective concentrations as low as (dose-dependent increase in [Ca2+]i)” value in test [2] worked out at 10 nM. The concentration for a half-maximal effect (EC50) came out at 0.073 µM in test [2] (setting [3]) and 0.07 µM in test [2] (setting [4]). For the same compound, the Emax in test [2] (setting [5]) was 73%.

As to `CC(=O)[C@H]1CC[C@H]2[C@@H]3CCC4=CC(=O)CC[C@]4(C)[C@H]3CC[C@]12C` [Progesterone], the “effect on acrosome reaction (AR)” value in test [1] (steroids 10 µM, P4 10 µM) is reported as “only slightly increased the AR”. Also, the concentration giving a half-maximal response (EC50) in test [2] (increase in [Ca2+]i in human sperm, read-out: EC50) is 0.0025 µM; in test [2] (increase in [Ca2+]i, dose-response 90 µM to 0.3 nM, read-out: EC50 (±SD)), 0.003 µM; in test [2] (pooled from 3 independent experiments, read-out: Mean EC50 µM (±SD)), 0.002 µM. For the same compound, the Emax in test [2] (setting [5]) was found to be 100%.

Regarding `C[C@]12Cc3c[nH]nc3C[C@@H]1CC[C@@H]1[C@@H]2CC[C@@]2(C)[C@H]1CC[C@]2(C)O` [Stanozolol], the “cells with induced acrosome reaction” value in test [1] is “more than 10%”. Further, the concentration for a half-maximal effect (EC50) was determined as 0.285 µM in test [2] (setting [3]) and 0.081 µM in test [2] (setting [4]). For the same compound, in test [2] (at low concentrations in the nanomolar range), the “increase in [Ca2+]i” value is given as 30%. For the same compound, in test [2], the Emax worked out at 79%.
